Assays:
[1] = tested on: PBCEC; type: cell-based, porcine; conditions: levels higher than 100 µM; data not shown
Experimental: In order to study the barrier integrity PBCEC were incubated with 1 µM OTA, OTα, CIT and DHCIT in the apical compartment (blood side) of Transwell® filter inserts for 48 h. The TEER values as well as the electrical capacitance (cCL) were monitored by cellular impedance spectroscopy (Figure 4A,B). As a negative control the permeability of […] was measured after 48 h. Sucrose is not transported by any cellular transport protein and represents a marker for an intact BBB.
For barrier integrity, TEER values were monitored using a cellZscope® cellular impedance spectrometer (nanoAnalytics, Münster, Germany). […]. The detailed protocols can be found in the Supplementary Materials. […]
6.1. Cellular impedance spectroscopy
To monitor the barrier integrity during all transfer studies, the transendothelial electrical resistance (TEER) was measured with a cellZscope® cellular impedance spectrometer (nanoAnalytics, Münster, Germany) using a module suitable for 24 Transwell® filter inserts. After the mycotoxins were added to the cell culture medium, TEER was analyzed until the end of the experiment (48 h). The waiting time after each run was set to 10 min, resulting in 60 scans per 48 h.
The results were normalized to the TEER values of the first impedance spectrum of each well. Data processing was performed using the cellZscope 1.3.4 software (nanoAnalytics, Münster, Germany).

[2] = tested on: PBCEC; conditions: 10 µM

Structure (SMILES) | effect on PBCEC barrier integrity [1] | cellular viability (dehydrogenase activity) compared to the negative control [2]
CCCN(CCC)S(=O)(=O)c1ccc(C(=O)O)cc1 [probenecid, 4-(N,N-dipropylaminosulfonyl)benzoic acid, reference compound] | impaired the PBCEC barrier integrity | 
CC(=O)OC[C@]12C[C@H](OC(=O)CC(C)C)C(C)=C[C@H]1O[C@@H]1[C@H](O)[C@@H](OC(C)=O)[C@@]2(C)[C@]12CO2 [T-2 toxin, reference compound] |  | 2 ± 1%
